Data on seven molecules can be found in article PMC9241644, “Evaluation of Novel Quorum Sensing Inhibitors Targeting Auto-Inducer 2 (AI-2) for the Control of Avian Pathogenic Escherichia coli Infections in Chickens” (Microbiology Spectrum, 2022).

In series [1] the test system is Rif^R APEC O78. Kind of series: Efficacy of QSIs in APEC-infected chickens (oral gavage pilot). To be noted: for Average lesion severity, Lung / Average lesion severity, Liver / Average lesion severity, Airsac / Average lesion severity, Heart / Mortality rate % (Nr.) / Average APEC load, Liver / Average APEC load, Heart / Average APEC load, Kidney / Average APEC load, Lung: Table S1, oral gavage pilot; for Average lesion severity, Lung / Average lesion severity, Liver / Average lesion severity, Airsac / Average lesion severity, Heart: lesion score; for Average lesion severity, Lung: PC 1.25; for Average lesion severity, Liver: PC 1.75; for Average lesion severity, Airsac: PC 2.00; for Average lesion severity, Heart: PC 2.25; for Mortality rate % (Nr.): n = 6/group, 8 DPI, PC 66.6 (4/6); for Average APEC load, Liver: PC 5.95; for Average APEC load, Heart: PC 5.98; for Average APEC load, Kidney: PC 6.81; for Average APEC load, Lung: PC 6.83; for reduction in mortality compared with the PC group / average APEC load reduction in the internal organs (liver, heart, lung, kidney) compared with PC: chickens, QSI oral gavage once daily 5 days, s/c APEC O78 1 × 10^7 CFU/bird; for reduction in mortality compared with the PC group: PC mortality normalized to 100%; for average APEC load reduction in the internal organs (liver, heart, lung, kidney) compared with PC: range over organs. The series is classed as in vivo, Escherichia coli. On the procedure:
The chicken experiment was carried out using 1-day-old broiler chickens (Mayer Hatchery, OH, USA). Feed and water were given ad libitum. Chickens (n = 6/group) were administered with the QSIs (QSI-1, QSI-2, QSI-5 − 8, QSI-10, ChemBridge, San Diego, CA); previously designated as C1, C2, C5, C6, C7, C8, C10 ([17]) using oral gavage. These compounds were selected based on their high efficacy in in vitro studies and the doses correspond to 30X of the initial in vitro screening concentration ([17]). The QSIs were suspended in dimethyl sulfoxide (DMSO; used as a vehicle) and administered once daily for 5 successive days (starting from day 4 to day 8). The first dose was administered 1 day before the challenge, followed by the second dose on the challenge day (2 h before challenge), followed by three additional doses on subsequent days. Feeders were removed 1 h prior to the treatment and replaced 1 h after the treatment. Chickens were challenged subcutaneously (s/c) on day 5 with Rif^R APEC O78 (1 × 10^7 CFU/bird) in PBS using syringe (27 gauge, 0.5 in.). The challenge dose, which […], was chosen based on preliminary experiments conducted with different infection routes (subcutaneous s/c, intra-tracheal and intra-airsacs) and different doses (10^6, 10^7, and 10^8 CFU/chicken). […] Therefore, we selected this challenge dose and route for evaluation of QSIs in chickens ([34]). The positive (PC; infected with APEC O78 and DMSO treated) and negative (NC; non-infected and non-treated) control groups were included.
(§1) Chickens were monitored for clinical signs for 8 DPI. Any chickens moribund during this period were humanely euthanized and necropsied to determine bacterial load in the internal organs (liver, heart, lung, and kidney). Internal organs were aseptically collected, weighed and suspended in 1× PBS, the amount of PBS added was adjusted based on the organ size to make a suspension, the organ size and amount of PBS added were included in the final calculation of the CFU. The samples were homogenized, serially diluted 10-fold, plated on MacConkey agar (Remel, CA, USA) containing 50 μg/mL rifampicin, and incubated at 37°C for 24 h to determine the CFU/g. Pathological lesions severity in internal organs (pericarditis, perihepatitis, airsacculitis, and lung congestion) was scored as described previously ([21], [59]). At 8 DPI, the remaining chickens were humanely euthanized and necropsied, lesions were scored, and the APEC load was quantified in internal organs as described above.

The test system of series [2] is Rif^R APEC O78. Put plainly: Comparative efficacy of QSI-5 and SDM in field simulated conditions (built-up floor litter). The series is classed as in vivo, Escherichia coli.
From the text: as §1
To compare the efficacy of QSI-5 with an antibiotic SDM currently used in the field, chickens (n = 70) were raised on built-up floor litter in a field-simulated conditions. One-day-old broiler chickens (Case Farms Ohio Hatchery, OH, USA) were used for conducting the experiment. The optimized dose of QSI-5 (1 mg/L) and the therapeutic dose of SDM (495.323 mg/L) (0.05%) were given in drinking water daily for 7 days (starting from day 5 to day 11 of age). The volume of drinking water needed daily was determined as described above. On day 6, the chickens were infected s/c with Rif^r APEC O78 (5 × 10^6 CFU/chicken, s/c). PC (0.05% DMSO treated and infected) and NC (non-infected and non-treated) control groups were included. The mortality was recorded daily until the end of the experiment (42 days of age: slaughter age). At 8 DPI, half of the chickens from each group were necropsied, lesions were scored, and the APEC load was quantified in the internal organs as described above. The other half of the chickens were raised until day 42 to determine the impact of treatment on the body weight gain and feed intake. To calculate the FCR, body weight was measured once every week and feed intake was recorded every day. On day 42, the remaining chickens were euthanized, body weight was measured and 10 chickens from each group were randomly selected and necropsied, lesions and APEC load were assessed in the internal organs.

Series [3] in a line: QSI-5 and SDM residue quantification in muscle, kidney and liver (LC-MS). It counts as in vivo, chickens. To be noted: in vivo. On the procedure: The safety of QSI-5 and SDM was assessed by measuring the level of drug residue in the muscle, kidney, and liver using LC-MS (CCIC, MS&P Facility, OSU) as described before ([34]). As described above, chickens were administered with the optimized dose of QSI-5 (1 mg/L) and the therapeutic dose of SDM (495.323 mg/L) (0.05%) in drinking water daily for 7 days (starting from day 5 to day 11 of age). Tissue samples were collected individually from chickens treated with QSI-5 and SDM (five chickens per group) from experimental set up as described for floor trial at 2 DPLT, 5 DPLT, and […] (slaughter age). All samples were weighed and extracted at a 400 mg/mL ratio of tissue in the extraction solution (50:50 H2O: ACN). Samples were homogenized using a probe sonicator 20 times and centrifuged at 13,000 × g for 30 min. Sixty μL of the supernatant was transferred into glass vials and dried in a SpeedVac for 1.5 h, and then resuspended in 120 μL of 25:25:50 H2O:ACN:MeOH. Standard calibration, LC system, mass spectrometer, and drug target monitoring were performed as described above. Calibration standard curves for measuring the accumulation of QSI-5 and SDM in the kidney, liver, and muscle are shown in Fig. S6A and S6B.

In the case of `Cc1ccccc1N1CCN(C2CCCN(C(=O)c3ccc(F)c(Cl)c3)C2)CC1` (stereo not drawn) [QSI-2], in series [1], the “Average lesion severity, Lung” value is reported as 0.17; the “Average lesion severity, Liver” value is reported as 1.00; the “Average lesion severity, Airsac” value was found to be 0.92; the “Average lesion severity, Heart” value is given as 1.67. Besides, in series [1], the “Mortality rate % (Nr.)” value is recorded as 33.3%; the “Average APEC load, Liver” value is 4.20 Log CFU/g of tissue; the “Average APEC load, Heart” value is 4.87 Log CFU/g of tissue; the “Average APEC load, Kidney” value is given as 5.07 Log CFU/g of tissue. Further, in series [1], the “Average APEC load, Lung” value is 5.15 Log CFU/g of tissue and the “reduction in mortality compared with the PC group” value (“reduction in mortality” below) is on record as 50%.

Take `OCCC1CN(C2CCN(c3ccccc3)CC2)CCN1CCCc1ccccc1` (stereo not drawn) [QSI-10]: in series [1], the “Average lesion severity, Lung” value worked out at 0.00; the “Average lesion severity, Liver” value came to 0.00; the “Average lesion severity, Airsac” value was 0.17; the “Average lesion severity, Heart” value is reported as 0.33. Moreover, in series [1], the “Mortality rate % (Nr.)” value is reported as 16.6%; the “Average APEC load, Liver” value is given as 2.50 Log CFU/g of tissue; the “Average APEC load, Heart” value is 2.50 Log CFU/g of tissue; the “Average APEC load, Kidney” value was 2.47 Log CFU/g of tissue. For the same molecule, the “Average APEC load, Lung” value in series [1] is 3.08 Log CFU/g of tissue.

Regarding `O=C(CCN1CCN(c2ccccc2F)CC1)Nc1ccc(Br)cc1` [QSI-7], in series [1], the “Average lesion severity, Lung” value came to 0.17; the “Average lesion severity, Liver” value is 1.33; the “Average lesion severity, Airsac” value is reported as 1.00; the “Average lesion severity, Heart” value is 1.33. Moreover, in series [1], the “Mortality rate % (Nr.)” value was determined as 66.6%; the “Average APEC load, Liver” value is 5.95 Log CFU/g of tissue; the “Average APEC load, Heart” value was 6.13 Log CFU/g of tissue; the “Average APEC load, Kidney” value is 6.13 Log CFU/g of tissue. Further, in series [1], the “Average APEC load, Lung” value is listed as 6.10 Log CFU/g of tissue; the “reduction in mortality” value was “did not reduce mortality”; the “average APEC load reduction in the internal organs (liver, heart, lung, kidney) compared with PC” value was “did not reduce the APEC load”.

With `O=[N+]([O-])c1cccc(S(=O)(=O)Nc2ccc(Br)cc2)c1` [QSI-6], in series [1], the “Average lesion severity, Lung” value was found to be 0.50; the “Average lesion severity, Liver” value was 0.83; the “Average lesion severity, Airsac” value was found to be 1.17; the “Average lesion severity, Heart” value is given as 1.50. Also, in series [1], the “Mortality rate % (Nr.)” value was found to be 66.6%; the “Average APEC load, Liver” value was 4.62 Log CFU/g of tissue; the “Average APEC load, Heart” value was 4.87 Log CFU/g of tissue; the “Average APEC load, Kidney” value is reported as 5.35 Log CFU/g of tissue. In addition, in series [1], the “Average APEC load, Lung” value was 5.17 Log CFU/g of tissue and the “reduction in mortality” value is listed as “did not reduce mortality”.

Consider `COCCN1CCC(CN(Cc2cccnc2)Cc2ccccc2Cl)CC1` [QSI-1], for which, in series [1], the “Average lesion severity, Lung” value was 0.50; the “Average lesion severity, Liver” value is given as 2.17; the “Average lesion severity, Airsac” value was determined as 1.83; the “Average lesion severity, Heart” value is reported as 3.00. For the same molecule, in series [1], the “Mortality rate % (Nr.)” value is recorded as 50%; the “Average APEC load, Liver” value is reported as 5.30 Log CFU/g of tissue; the “Average APEC load, Heart” value is listed as 5.63 Log CFU/g of tissue; the “Average APEC load, Kidney” value is 6.28 Log CFU/g of tissue. In addition, in series [1], the “Average APEC load, Lung” value is 5.92 Log CFU/g of tissue; the “reduction in mortality” value is reported as 25%; the “average APEC load reduction in the internal organs (liver, heart, lung, kidney) compared with PC” value is “did not reduce the APEC load”.

Regarding `CCc1ccccc1NC1NC(c2c(C)nc3ccccn23)=CS1` (stereo not drawn) [QSI-8], in series [1], the “Average lesion severity, Lung” value is reported as 0.17; the “Average lesion severity, Liver” value is on record as 0.50; the “Average lesion severity, Airsac” value was found to be 0.50; the “Average lesion severity, Heart” value was 0.50. Also, in series [1], the “Mortality rate % (Nr.)” value was 33.3%; the “Average APEC load, Liver” value is recorded as 3.48 Log CFU/g of tissue; the “Average APEC load, Heart” value is 3.60 Log CFU/g of tissue; the “Average APEC load, Kidney” value is on record as 3.65 Log CFU/g of tissue. Also, in series [1], the “Average APEC load, Lung” value is listed as 4.60 Log CFU/g of tissue and the “reduction in mortality” value was determined as 50%.

`COc1cc(NS(=O)(=O)c2ccc(N)cc2)nc(OC)n1` [SDM, sulfadimethoxine]: the “Average lesion severity, Lung” value in series [2] (Table S3, PC 1.85) is listed as 1.17. Further, the “Average lesion severity, Liver” value in series [2] (Table S3, PC 2.52) is recorded as 2.03. Further, in series [2] (Table S3, PC 3.36), the “Average lesion severity, Airsac” value is reported as 2.50. The “Average lesion severity, Heart” value in series [2] (Table S3, PC 3.58) is given as 2.83. Also, the “Average APEC load, Liver” value in series [2] (Table S3, PC 7.24) is recorded as 5.05 Log CFU/ g of tissue. For the same molecule, in series [2] (Table S3, PC 7.68), the “Average APEC load, Lung” value is 6.17 Log CFU/ g of tissue. For the same molecule, in series [2] (Table S3, PC 7.73), the “Average APEC load, Kidney” value is on record as 5.33 Log CFU/ g of tissue. Further, the “Average APEC load, Heart” value in series [2] (Table S3, PC 7.92) was 5.69 Log CFU/ g of tissue. In series [2] (Table S3, until 42 days of age, QSI-5 (8/63), SDM (19/65), PC 45.6 (31/68)), the “Mortality rate % (Nr.)” value is on record as 29.2%. For the same molecule, the “reduction in mortality” value in series [2] (built-up floor litter, QSI-5 1 mg/L, SDM 495.3 mg/L (0.05%) in drinking water 7 days, s/c APEC O78 5 × 10^6 CFU/chicken) is 35.9%. Further, in series [3] (broiler, chicken, 35 DPLT), the “Drug accumulation, Liver (ppm± SD)” value is given as 0.0 ± 0.0 ppm and the “Drug accumulation, Muscle (ppm± SD)” value came to 0.0 ± 0.0 ppm. The “Drug accumulation, Kidney (ppm± SD)” value in series [3] (commercial broiler, chicken, 35 DPLT) is recorded as 0.0 ± 0.0 ppm. Also, in series [3], the “residue in any tissues” value is recorded as “no detectable residues”.
